Data taken from a melting point compilation (Tetko et al.).

melting point [°C]	Compound
63 to 65	COC(=O)c1ccc(F)cc1S(=O)(=O)Cl
120 to 122	COc1ccc(-c2noc(CCC(=O)O)n2)cc1OC
269 to 271	Cc1cc2cc(C(=O)O)oc2cc1C
217 to 221	Nc1cc(Br)cc(C(=O)O)c1
139 to 141	O=C(NCC(F)(F)F)c1ccc(S(=O)(=O)Cl)cc1
223 to 225	NC(=O)COc1cccc(C(=O)O)c1
142 to 144	Cc1ccc2[nH]cc(C=O)c2c1
166 to 168	CCOC(=O)c1sc(-c2cccc([N+](=O)[O-])c2)cc1N
123 to 125	Cc1cc(Br)ccc1C(=O)N1CCCC(C(=O)O)C1 (stereo unspecified)
113 to 115	CS(=O)(=O)Nc1cccc(Br)c1
175 to 190	Cc1ccc(S(N)(=O)=O)cc1C(=O)O
190 to 192	O=C(O)c1oc2ccccc2c1CSC1=NCCS1
173 to 177	CC(C)c1ccccc1-n1ccnc1S
294 to 296	NC(=O)Cn1ccc(=O)c2ccccc21
195 to 197	CCNC(=O)c1ccc(NC2CCOCC2)c(C)c1
145 to 147	COc1ccc(S(N)(=O)=O)cc1N
175 to 180	COc1ccc(C(=O)O)cc1S(=O)(=O)N1CCCCC1C (stereo unspecified)
166 to 168	COC(=O)c1c(C)[nH]c(C(=O)CCl)c1C
97 to 99	COc1ccc(NC(=O)CCCl)c([N+](=O)[O-])c1
139 to 141	CCCOc1ccc2[nH]cc(C=O)c2c1
158 to 160	O=C(O)c1ccc(OCC(F)F)nc1
235 to 237	CC1(c2ccc([N+](=O)[O-])cc2)NC(=O)NC1=O (stereo unspecified)
293 to 295	O=C(O)c1cccc2c1C(=O)c1ccccc1C2=O

melting point [°C]	Compound
72 to 74	O=C(CBr)c1ccc2c(c1)CCO2
173 to 175	Cc1c(N)cccc1C(N)=O
159 to 163	CCOC(=O)c1[nH]c2c(c1C)C(=O)CC(C)(C)C2
118 to 120	O=C(c1ccc(Br)o1)N1CCNCC1
259 to 261	CNc1cc(C(=O)O)cc(Cl)n1
122 to 124	CC(C(=O)O)c1ccc(S(=O)(=O)N(C)C)cc1 (stereo unspecified)
141 to 143	Cc1ccccc1NC(=O)NN
178 to 180	CCC(=O)c1ccc(C(=O)O)cc1
119 to 121	COc1ccc(S(=O)(=O)NC(C)(C)C)cc1N
214 to 216	O=C(O)c1ccc(-c2ncon2)cc1
105 to 107	N#Cc1ccc(F)c(CS(=O)(=O)Cl)c1
99 to 101	O=C(Cc1ccccn1)c1ccc(Cl)cc1
263 to 265	O=C(O)CCc1nc2ccccc2[nH]c1=O
133 to 135	CC(=O)c1sc(-c2ccc(O)cc2)nc1C
85 to 87	CC(C(=O)O)c1cccnc1 (stereo unspecified)
125 to 127	O=C(CCl)Nc1cc([N+](=O)[O-])ccc1F
207 to 209	CNC(=O)c1ccc(NC)c([N+](=O)[O-])c1
44 to 46	CC(C)(C)C(=O)C=Cc1ccc(Br)s1
60 to 62	COc1ccc(C=O)c(Cl)c1
109 to 111	COc1ccc(-c2nc(CC(=O)O)cs2)cc1
84 to 86	COc1ccc(Br)cc1NC(=O)C1CCC1
217 to 219	CC(C)(C)NS(=O)(=O)c1cc(C(=O)O)ccc1Br
258 to 260	Cc1cc(O)cc(=O)n1C(C)C(=O)O (stereo unspecified)

melting point [°C]	Compound
116 to 118	Cc1ccc(Oc2ncccc2C#N)c(Br)c1
65 to 67	O=C(c1cccc(S(=O)(=O)Cl)c1)N1CCCC1
74 to 76	COC(=O)c1ccc(CBr)cc1F
168 to 170	Cc1cccc(-c2nn(-c3ccc(F)cc3)cc2C(=O)O)c1
188 to 192	O=C(CSc1nnc(S)s1)c1ccccc1
203 to 205	Cc1ccc(NS(=O)(=O)c2cccc(C(=O)O)c2)cc1
208 to 210	COc1ccc(C2C(C(N)=O)CC(=O)N2C)cc1 (stereo unspecified)
44 to 46	CC(C)c1ccc(C(=O)CCl)cc1
188 to 190	CC(C)C(=O)c1ccc2[nH]c(=O)oc2c1
193 to 195	CNS(=O)(=O)c1ccc(-c2ccc(Cl)c(Cl)c2)c(C(=O)O)c1
36 to 38	Cc1ccc(C(C)C)c2c1C(=O)CCO2
175 to 177	CCOc1ccc(N(C)S(=O)(=O)c2ccc(C)c(C(=O)O)c2)cc1
129 to 131	CC(C)n1c(Cl)nnc1-c1ccccc1
75 to 79	COc1ccc(S(=O)(=O)Cl)c([N+](=O)[O-])c1
92 to 94	O=C(c1ccc(F)cc1)c1cccnc1
183 to 185	Cc1[nH]c(C(=O)O)c(C)c1C(=O)OC(C)C
95 to 99	CCN(CC)S(=O)(=O)c1cc(N)ccc1Cl
60 to 62	CC(=O)c1c(C)nn(-c2ccccc2)c1C
278 to 280	O=C(O)c1ccc2nnc(C(F)F)n2c1
195 to 197	Cc1cc(C)c2c(=O)[nH]sc2n1
142 to 144	O=C(O)Cc1csc(-c2c(Cl)cccc2Cl)n1

The next lines start with the molecule.

Compound	melting point [°C]
O=C(O)C(NS(=O)(=O)c1cccc(Cl)c1)c1ccccc1 (stereo unspecified)	168 to 170
O=C(O)C1CC(=O)N(C2CCCCCC2)C1 (stereo unspecified)	165 to 167
NC(=O)C1CCCC1	173 to 175
O=C(O)C1CC1C(=O)O (stereo unspecified)	177 to 179
Cn1cc(C=O)c(-c2ccncc2)n1	131 to 133
COc1ccc(-c2nn(CCC#N)cc2/C=C(/C#N)C(=O)O)cc1	212 to 214
Sc1nnc(Cc2ccccc2)o1	124 to 126
CN1NC=C2CN=C(Cl)N=C21	189 to 191
NS(=O)(=O)c1ccc(OCCSCC(=O)O)cc1	196 to 198
Cc1nn(C)c(N)c1SC#N	176 to 178
CC1CCC2(CC1)NC(=O)N(N)C2=O (stereo unspecified)	118 to 120
N#CC1(N)CCSC1 (stereo unspecified)	54 to 56
CCOC(=O)c1csc(-c2ccccn2)n1	67 to 69
CCCOc1ccccc1C(N)=S	100 to 102
COc1cccc2sc(NC(=O)OCC(F)(F)F)nc12	133 to 135
CCOC(C)C(N)=S (stereo unspecified)	54 to 56
Nc1nc(C2CC2)ns1	144 to 146
O=C(O)Cn1nc2n(c1=O)CCCCC2	229 to 231
Cc1ccc(NC(=O)C=NO)cc1	145 to 147
O=C1OCCc2cnc3nc(C(F)(F)F)nn3c21	185 to 187
N#Cc1cnc(Oc2ccccc2)cn1	99 to 101
O=C(O)c1cc(C2CC2)nn1-c1ccccc1	138 to 140
CC(C)(C)c1ccc(OCCCC(=O)O)cc1	53 to 55
COC(=O)C1CC(OC)=CC1=O (stereo unspecified)	47 to 49
Nc1c(-c2cccs2)nc2ccccn12	188 to 190

Compound	melting point [°C]
Cc1nc(CN)oc1-c1ccc(Cl)cc1	69 to 71
Nc1ccc(S(=O)(=O)Nc2ccccc2Cl)cc1	159 to 161
O=C(O)c1cc(S(=O)(=O)Cl)cs1	139 to 141
Nc1cc(C(F)(F)F)c[nH]c1=O	96 to 98
Nc1nc2ccc(S(=O)(=O)N3CCCC3)cc2s1	225 to 227
O=C(NC1CCN(C(=O)CCl)CC1)c1ccccc1	155 to 157
Nc1nc2cc(Cc3ccccc3)ccc2o1	151 to 153
O=C(O)c1ccccc1SC(F)F	114 to 116
N#Cc1ccncc1C(=O)O	175 to 177
Cc1[nH]c2ccccc2c1C1CCNCC1	222 to 224
O=C(O)c1ccnc(NC2CCCC2)c1	296 to 298
CC(C)(CC(=O)O)NC(=O)OC(C)(C)C	89 to 91
CCC(CC)(CNC(=O)OC(C)(C)C)C(=O)O	130 to 132
O=[N+]([O-])c1ccc(NCC2CCCO2)c(F)c1 (stereo unspecified)	68 to 70
NCc1cc(=O)n2ccccc2n1	123 to 125
Fc1ccc(-c2cc3ncnc(Cl)c3s2)cc1	202 to 206
CC(C)(C)OC(=O)N1CCCC1CC(=O)O (stereo unspecified)	107 to 109
O=C(O)c1nc(=O)[nH][nH]1	202 to 204
O=C(O)c1ccccc1NCCO	142 to 144
CNc1ncc(Br)cn1	116 to 118
O=C1COc2cc(OCc3ccccc3)ccc21	99 to 101
Cc1cc(C(=O)O)cc(C)c1OCC(=O)N1CCCCC1	175 to 177
Clc1nc(-c2cccc(Oc3ccccc3)c2)no1	50 to 52
NC(=O)NC(CC(=O)O)c1ccccc1 (stereo unspecified)	194 to 196
CC(C)(C)OC(=O)NCCC(=O)NN	104 to 106

Compound	melting point [°C]
O=c1[nH]c(CCl)nc2ccsc12	190 to 193
NNC(=O)c1cc(-c2ccncc2)nc2ccccc12	226 to 228
ClCc1ccc(-c2nc3cccc(Cl)c3s2)cc1	173 to 175
Cc1nn(C)c(C)c1C(=O)C(=O)O	160 to 168
Brc1nnc(Br)s1	104 to 106
Clc1nc(-c2cccnc2)nc2sc3c(c12)CCC3	145 to 147
CC(C)(C)c1ccc(CCCC(=O)O)cc1	53 to 55
NCc1ccc(NC(=O)CCCOc2ccccc2)cc1	96 to 98
CS(=O)(=O)c1ccc(S(N)(=O)=O)cc1	246 to 248
NC1(C(=O)O)CCOc2ccccc21 (stereo unspecified)	239 to 241
CCOC(=O)Cc1csc(NC(=O)Cc2ccccc2)n1	92 to 94
C#CCNC(C)=O	79 to 81
CCCn1c(C)cc(C=O)c1C	52 to 54
O=C(O)CCc1ccc(C(F)(F)F)cc1	106 to 110
Nc1nc(-c2ccccc2)c(-c2ncc[nH]2)s1	256 to 258
Fc1ccc(-c2nc(CCl)co2)cc1F	59 to 61
Nc1ccc(Br)cc1-c1nc(C2CC2)no1	123 to 125
COc1ccc(-c2nnc(S)n2N)c(OC)c1	200 to 202
COC(=O)c1cc(-c2cccc(C(F)(F)F)c2)ccc1N	72 to 74
Cn1cc(C=O)c(-c2ccccc2)n1	59 to 61
Cc1csc(NC2CC2)n1	64 to 66
Nc1ccc(N2CCCC2=O)cn1	165 to 167
COCCOc1ncccc1C(=O)O	58 to 60
Nc1ccccc1Cc1nc(-c2ccsc2)no1	118 to 120
